The results in this text go back to patent publication US20050181072A1, “Use of essential oils for combating gi tract infection by helicobacter-like organisms” (priority 2000, published 2005).

Molecules are shown by their SMILES. Values after ≈ are worked out from the molar mass of the structure shown. Like-named read-outs stand apart in the source and are kept apart here. Some results are limits rather than exact numbers.

The subject of this test is H. pylori. In words: Liquid medium assay, MBC determination (CFU count after subculture). The settings on record: Helicobacter pylori. In kind it is cell-based. Here is the method:
The parameters used to define the inhibitory capacity of a given substance are: 1) the minimal inhibitory concentration (MIC) which is the lowest concentration at which bacterial growth is prevented, and 2) the minimal […] concentration (MBC) which is the lowest concentration at which bacteria are killed (no growth in subculture). In the light of this: MIC≦MBC. ?
b) Liquid medium assay (used for MBC determination)
MBC determination in H. pylori was carried out by placing bacteria and different dilutions of EO at pH 7.4 together for 1 h or 24 h, plating (subculture in solid medium) for 3-5 days, and counting colony forming units (CFU). The results were then plotted as H. pylori (log10CFU/ml) vs concentration of EO (g/l). It is clear from the plots (shown in FIGS. 1 and 2) that EOs already display a marked effect on H. pylori viability after 1 h incubation and that the selected EOs are remarkably potent inhibitors of H. pylori in vitro.

[1] abbreviates: pure compounds, Table 2, pH 7.4, read-out: Liquid medium MBC.
The mark [2] stands for this setting: pH 7.4, read-out: Liquid medium MBC.

Consider `CC1=CCC2CC1C2(C)C` (stereo not drawn) [Alpha-pinene], for which the MBC under setting [1] came to 100 µg/mL (≈ 734 µM).

For `C=C1CCC2CC1C2(C)C` (stereo not drawn) [Beta-pinene], under setting [1], the MBC was found to be 100 µg/mL (≈ 734 µM).

For `Cc1ccc(C(C)C)cc1O` [Carvacrol], under setting [2], the MBC was 40 µg/mL (≈ 266 µM).

With `CC(C)=CCCC(C)=CC=O` [Citral], the MBC under setting [1] amounted to 40 µg/mL (≈ 263 µM).

As for `CC(C)=CCCC(C)CC=O` (centres unmarked) [Citronellal], the MBC under setting [1] amounted to 100 µg/mL (≈ 648 µM).

Turning to `C=CCc1ccc(OC)cc1` [Estragole], the MBC under setting [2] was determined as 100 µg/mL (≈ 675 µM).

Regarding `C=CCc1ccc(O)c(OC)c1` [Eugenol], under setting [1], the MBC came to 100 µg/mL (≈ 609 µM).

In the case of `CC12CCC(CC1)C(C)(C)O2` [Eukalyptol], the MBC under setting [1] is above 100 µg/mL.

`CC(C)=CCCC(C)=CCCC(C)=CCO` [Farnesol]: under setting [1], the MBC turned out to be 40 µg/mL (≈ 180 µM).

With `CC(C)=CCC/C(C)=C/CO` [Geraniol], the MBC under setting [1] came out at 100 µg/mL (≈ 648 µM).

Consider `CC(=O)OC/C=C(\C)CCC=C(C)C` [Geranyl acetate], for which the MBC under setting [1] is above 100 µg/mL.

`CC=Cc1ccc(O)c(OC)c1` [Isoeugenol]: the MBC under setting [1] worked out at 40 µg/mL (≈ 244 µM).

Consider `C=CC(C)(O)CCC=C(C)C` (centres unmarked) [Linalool], for which the MBC under setting [1] is 100 µg/mL (≈ 648 µM).

Turning to `CC1CCC(C(C)C)C(O)C1` (centres unmarked) [Menthol], the MBC under setting [1] was above 100 µg/mL.

For `CC(C)=CCC/C(C)=C\CO` [Nerol], the MBC under setting [1] was found to be 40 µg/mL (≈ 259 µM).

For the molecule `Cc1ccc(C(C)C)c(O)c1` [Thymol], under setting [1], the MBC is 100 µg/mL (≈ 666 µM).

Turning to `CCC/C=C/C=O` [Trans-2-hexenal], under setting [1], the MBC worked out at 40 µg/mL (≈ 408 µM).
